Molecules are shown by their SMILES. Read-outs that look alike come from different tables or passages of the source. Where only a bound is given, the exact number is not on record here.

A word on the IC50: it is the concentration that inhibits the measured activity by half.

In experiment [1] the target is T1, Human NPY2 receptor (Homo sapiens, UniProt P49146).
T1 sequence (P49146 1-381): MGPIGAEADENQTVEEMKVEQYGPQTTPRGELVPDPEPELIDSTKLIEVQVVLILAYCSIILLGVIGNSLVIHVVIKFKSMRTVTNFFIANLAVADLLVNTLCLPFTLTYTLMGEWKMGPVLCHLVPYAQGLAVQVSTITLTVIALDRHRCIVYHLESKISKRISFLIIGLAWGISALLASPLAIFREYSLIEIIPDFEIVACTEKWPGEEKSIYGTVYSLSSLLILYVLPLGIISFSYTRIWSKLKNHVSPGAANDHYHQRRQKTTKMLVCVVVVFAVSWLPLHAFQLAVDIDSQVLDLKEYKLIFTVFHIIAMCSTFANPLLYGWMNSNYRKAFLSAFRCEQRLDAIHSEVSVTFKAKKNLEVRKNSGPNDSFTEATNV
Put plainly: Human NPY2 Receptor Binding Assay.
Procedure: Binding assays were performed on GF/C Millipore 96-well plates pretreated with 0.02% polyethylenimine. The binding buffer for rat Y2 binding is Krebs-Ringer bicarbonate (pH 7.4) containing 0.01% BSA and 0.005% bacitracin. Samples consist of membrane protein, 25 pM [125I]PYY and drug dilution. Nonspecific binding is defined by 1 μpM NPY.
After a 2 hour incubation at room temperature with constant mixing, the samples are aspirated on a vacuum manifold, and rinsed with ice-cold binding buffer. The amount of radioactivity in each well is quantitated with either gamma counting or liquid scintillation.

Experiment [2] has as its target T2, Human NPY5 Receptor (Homo sapiens, UniProt Q15761).
T2 sequence (Q15761 1-445): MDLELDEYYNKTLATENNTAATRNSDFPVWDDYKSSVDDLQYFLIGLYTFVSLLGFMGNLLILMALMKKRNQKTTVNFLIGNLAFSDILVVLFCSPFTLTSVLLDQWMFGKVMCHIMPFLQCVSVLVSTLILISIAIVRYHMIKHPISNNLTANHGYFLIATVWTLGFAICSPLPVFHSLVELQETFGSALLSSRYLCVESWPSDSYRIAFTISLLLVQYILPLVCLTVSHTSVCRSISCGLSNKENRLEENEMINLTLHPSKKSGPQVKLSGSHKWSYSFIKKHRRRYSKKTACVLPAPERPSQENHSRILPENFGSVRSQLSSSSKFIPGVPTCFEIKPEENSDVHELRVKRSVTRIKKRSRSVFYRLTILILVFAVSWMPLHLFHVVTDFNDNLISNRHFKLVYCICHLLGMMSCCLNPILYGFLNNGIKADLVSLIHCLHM
Put plainly: Human NPY5 Receptor Binding Assay.

Setting [3] is: [125I]PYY, read-out: hPPY2 IC50.
The mark [4] stands for this setting: [125I]PYY, read-out: hNPY5 IC50.

Turning to `Nc1n[nH]c(SCC(=O)Nc2ccc(C(=O)c3ccccc3)cc2)n1` [Compound 67, 2-(5-Amino-2H-[1,2,4]triazol-3-ylsulfanyl)-N-(4-benzoyl-phenyl)-acetamide], the IC50 in experiment [1] (setting [3]) is over 5 µM; in experiment [2] (setting [4]), 7.6 µM.
For `O=C(CSc1nc[nH]n1)Nc1ccc(C(=O)c2ccccc2)cc1` [Compound 66, N-(4-Benzoyl-phenyl)-2-(1H-[1,2,4]triazol-3-ylsulfanyl)-acetamide], in that order: over 5 µM and 1.7 µM.
Turning to `O=C(CSc1nc2ccccc2o1)Nc1ccc(C(=O)c2ccccc2)cc1` [Compound 48, 2-(Benzooxazol-2-ylsulfanyl)-N-(4-benzoyl-phenyl)-acetamide], the IC50 is over 5 µM in experiment [1] (setting [3]) and 3 µM in experiment [2] (setting [4]).
For `O=C(CSc1nc2cc([N+](=O)[O-])ccc2[nH]1)Nc1ccc(C2CCCCC2)cc1` [Compound 17, N-(4-Cyclohexyl-phenyl)-2-(5-nitro-1H-benzoimidazol-2-ylsulfanyl)-acetamide], in that order: over 5 µM and 0.38 µM.
Regarding `Nc1nc(SCC(=O)Nc2ccc(C(=O)c3ccccc3)cc2)c2[nH]cnc2n1` [Compound 68, 2-(2-Amino-7H-purin-ylsulfanyl)-N-(4 benzoyl-phenyl)-acetamide], the half-maximal inhibitory concentration (IC50) in experiment [1] (setting [3]) was over 5 µM; in experiment [2] (setting [4]), 5 µM.
On to `O=C(CSc1nc2ccccc2s1)Nc1ccc(C(=O)c2ccccc2)cc1` [Compound 47, 2-(Benzothiazol-2-ylsulfanyl)-N-(4-benzoyl-phenyl)-acetamide], for which the values for the IC50 in experiment [1] (setting [3]) and in experiment [2] (setting [4]) were over 5 µM and 3.8 µM, respectively.
With `O=C(CSCCO)Nc1ccc(C2CCCCC2)cc1` [Compound 33, N-(4cydohexyl-phenyl)-2-(2-hydroxy-ethylsulfanyl)-acetamide], the half-inhibitory concentration (IC50) was over 5 µM in experiment [1] (setting [3]) and 0.069 µM in experiment [2] (setting [4]).
On the same counts, the results for `O=C(CSc1nc2ccccc2s1)Nc1ccc(C2CCCCC2)cc1` [Compound 37, 2-(Benzothiazol-2-ylsulfanyl)-N-(4-cyclohexylphenyl)-acetamide] are over 5 µM and 1.7 µM.
For `O=C(CSc1cccc[n+]1[O-])Nc1ccc(C(=O)c2ccccc2)cc1` [Compound 46, N-(4-Benzoyl-phenyl)-2-(1-oxy-pyridin-2-ylsulfanyl)-acetamide], in that order: over 5 µM and 0.3 µM.
For `O=C(CSCC(O)CO)Nc1ccc(C2CCCCC2)cc1` (stereo not drawn) [Compound 34, N-(4-Cyclohexyl-phenyl)-2-(2,3-dihydroxy-propylsulfanyl)-acetamide], in that order: over 5 µM and 0.144 µM.
For the compound `O=C(CSc1cccc[n+]1[O-])Nc1ccc(C2CCCCC2)cc1` [Compound 36, N-(4-Cyclohexyl-phenyl)-2-(1-oxy-pyridin-2-ylsulfanyl)-acetamide], the IC50 was over 5 µM in experiment [1] (setting [3]) and 0.11 µM in experiment [2] (setting [4]).
For `O=C(CSc1ccc(O)cc1)Nc1ccc(C(=O)c2ccccc2)cc1` [Compound 65], in that order: over 5 µM and 0.97 µM.
Consider `Nc1nc(SCC(=O)Nc2ccc(C3CCCCC3)cc2)nc2[nH]ncc12` [Compound 59], for which the IC50 is over 5 µM in experiment [1] (setting [3]) and over 1 µM in experiment [2] (setting [4]).
Regarding `Nc1nnc(SCC(=O)Nc2ccc(C(=O)c3ccccc3)cc2)s1` [Compound 61], the IC50 is over 5 µM in experiment [1] (setting [3]) and 0.51 µM in experiment [2] (setting [4]).
For `O=C(CSc1ccc(O)cc1)Nc1ccc(C2CCCCC2)cc1` [Compound 55], in that order: over 5 µM and 1.7 µM.
In the case of `CC(=O)Nc1ccc(SCC(=O)Nc2ccc(C(=O)c3ccccc3)cc2)cc1` [Compound 64, 2-(-Acetylamino-phenylsulfanyl)-N-(4-benzoyl-phenyl)-acetamide], the IC50 is over 5 µM in experiment [1] (setting [3]) and 2.7 µM in experiment [2] (setting [4]).
For `O=C(CSc1nnnn1-c1ccccc1)Nc1ccc(C(=O)c2ccccc2)cc1` [Compound 62, N-(4-Benzoyl-phenyl)-2-(1-phenyl-1H-tetrazol-5-ylsulfanyl)-acetamide], in that order: over 5 µM and 0.3 µM.
As to `O=C(CSc1ccccn1)Nc1ccc(C(=O)c2ccccc2)cc1` [Compound 44, N-(4-Benzoyl-phenyl)-2-(pyridin-2-ylsulfanyl)-acetamide], the results for the concentration for half-maximal inhibition (IC50) in experiment [1] (setting [3]) and in experiment [2] (setting [4]) were over 5 µM and 0.32 µM, respectively.
On the same counts, the results for `Cc1ccc2[nH]c(SCC(=O)Nc3ccc(C4CCCCC4)cc3)nc2c1` [Compound 21, N-(4-Cyclohexyl-phenyl)-2-(5-methyl-1H-benzolmidazol-2-ylsulfanyl)-acetamide] are over 5 µM and 0.43 µM.
For the compound `Cc1ccnc(SCC(=O)Nc2ccc(C(=O)c3ccccc3)cc2)n1` [Compound 30, N-(4-Benzoyl-phenyl)-2-(4-methyl-pyrimidin-2-ylsulfanyl)-acetamide], the results for the IC50 in experiment [1] (setting [3]) and in experiment [2] (setting [4]) were over 5 µM and 0.48 µM, respectively.
With `O=C(CSc1ncnc2c1ncn2[C@@H]1O[C@H](CO)[C@H](O)[C@H]1O)Nc1ccc(C(=O)c2ccccc2)cc1` [Compound 24, N-(4-Benzoyl-phenyl)-2-[9-((2R,3R,4R,5R)-3,4-dihydroxy-hydroxymethy-tetrahydro-furan-2-yl)-9H-purin-ylsulfanyl]-acetamide], the IC50 is over 5 µM in experiment [1] (setting [3]) and over 10 µM in experiment [2] (setting [4]).
For `O=C(CSCC(O)CO)Nc1ccc(C(=O)c2ccccc2)cc1` (stereo not drawn) [Compound 42, N-(4-Benzoyl-phenyl)-2-(2,3-dihydroxy-propylsulfanyl)-acetamide], in that order: over 5 µM and 1.5 µM.
On the same counts, the results for `O=C(CSCCO)Nc1ccc(C(=O)c2ccccc2)cc1` [Compound 40, N-(4-Benzoyl-phenyl)-2-(2-hydroxy-ethylsulfanyl)-acetamide] are over 5 µM and 0.69 µM.
On the same counts, the results for `CCOc1ccc2nc(SCC(=O)Nc3ccc(C(=O)c4ccccc4)cc3)sc2c1` [Compound 60] are over 5 µM and 2.1 µM.
For `COc1ccc2[nH]c(SCC(=O)Nc3ccc(C(=O)c4ccccc4)cc3)nc2c1` [Compound 20, N-(4-Benzoyl-phenyl)-2-(5-methoxy-1H-benzolmidazol-2-ylsulfanyl)-acetamide], the IC50 was over 5 µM in experiment [1] (setting [3]) and 0.42 µM in experiment [2] (setting [4]).
As to `O=C(CSc1ccc(F)cc1)Nc1ccc(C(=O)c2ccccc2)cc1` [Compound 63, N-(4-Benzoyl-phenyl)-2-(4-fluoro-phenylsulfanyl)-acetamide], the IC50 is over 5 µM in experiment [1] (setting [3]) and 0.65 µM in experiment [2] (setting [4]).
For the compound `Cc1ccc2[nH]c(SCC(=O)Nc3ccc(C(=O)c4ccccc4)cc3)nc2c1` [Compound 22, N-(4-Benzoyl-phenyl)-2-(5-methyl-1H-benzolmidazol-2-ylsulfanyl)-acetamide], the 50% inhibitory concentration (IC50) in experiment [1] (setting [3]) was over 5 µM; in experiment [2] (setting [4]), 0.31 µM.
Consider `O=C(CSc1ncccn1)Nc1ccc(C(=O)c2ccccc2)cc1` [Compound 49, N-(4-Benzoyl-phenyl)-2-(pyrimidin-2-ylsulfanyl)-cetarnide], for which the IC50 in experiment [1] (setting [3]) was over 5 µM; in experiment [2] (setting [4]), 1.6 µM.
With `Nc1nc(SCC(=O)Nc2ccc(C3CCCCC3)cc2)n[nH]1` [Compound 57, 2-(-Amino-2H-[1,2,4]triazol-3-ylsulfanyl)-N-(4-cyclohexyl-phenyl)-acetamide], the IC50 is over 5 µM in experiment [1] (setting [3]) and over 1 µM in experiment [2] (setting [4]).
On the same counts, the results for `Cn1nnnc1SCC(=O)Nc1ccc(C(=O)c2ccccc2)cc1` [Compound 45, N-(4-Benzoyl-phenyl)-2-(1-methyl-1H-tetrazol-5-ylsulfanyl)-acetamide] are over 5 µM and 0.17 µM.
For `O=C(CSc1ccc(F)cc1)Nc1ccc(C2CCCCC2)cc1` [Compound 53], in that order: over 5 µM and 0.21 µM.
For the compound `O=C(CSc1ccncc1)Nc1ccc(C(=O)c2ccccc2)cc1` [Compound 41, N-(4-Benzoyl-phenyl)-2-(pyridin-4-ylsulfanyl)-acetamide], the IC50 in experiment [1] was over 5 µM; in experiment [2] (hNPY5 IC50, [125I]PYY) it was 0.33 µM.
For the compound `O=C(CSc1ncnc2[nH]ncc12)Nc1ccc(C(=O)c2ccccc2)cc1` [Compound 43, N-(4-Benzoyl-phenyl)-2-(1H-pyrazolo[3,4-d]pyrimidin-4-ylsulfanyl)-acetamide], the IC50 in experiment [1] (setting [3]) was over 5 µM; in experiment [2] (setting [4]), 1.3 µM.
Regarding `O=C(CSc1nc2cc(Cl)ccc2s1)Nc1ccc(C(=O)c2ccccc2)cc1` [Compound 71, N-(4-Benzoyl-phenyl)-2-(5-chloro-benzothiazol-2-ylsulfanyl)-acetamide], the values for the 50% inhibitory concentration (IC50) in experiment [1] (setting [3]) and in experiment [2] (setting [4]) were over 5 µM and 1.3 µM, respectively.
As to `O=C(CSC1=NCCS1)Nc1ccc(C(=O)c2ccccc2)cc1` [Compound 32, N-(4-Benzoyl-phenyl)-2-(4,5-dihydro-thiazol-2-ylsulfanyl)-acetamide], the IC50 was over 5 µM in experiment [1] (setting [3]) and 1.2 µM in experiment [2] (setting [4]).
Consider `CC(=O)Nc1ccc(SCC(=O)Nc2ccc(C3CCCCC3)cc2)cc1` [Compound 54], for which the results for the half-inhibitory concentration (IC50) in experiment [1] (setting [3]) and in experiment [2] (setting [4]) were over 5 µM and 2 µM, respectively.

Source of the values: patent publication US6245817A, “NPY5 receptor antagonists and methods for using same” (Bayer Corporation, priority 1999, dated 2001).
